Experimental data from PubChem BioAssay (NCI).
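How tested: cells in 96-well plates exposed to compound for 48 hours at five concentrations. The concentration for 50% growth inhibition is given as GI50. TGI: concentration producing complete growth inhibition.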

Key:
Experiment in all cases: NCI-60 cell line screen, 48 h
OVCAR-8 ovarian = system: OVCAR-8 ovarian
UACC-257 melanoma = system: UACC-257 melanoma
SNB-19 CNS = system: SNB-19 CNS
HCT-116 colon = system: HCT-116 colon
OVCAR-3 ovarian = system: OVCAR-3 ovarian
HT29 colon = system: HT29 colon
K-562 leukemia = system: K-562 leukemia
SR leukemia = system: SR leukemia
HCC-2998 colon = system: HCC-2998 colon
SW-620 colon = system: SW-620 colon
SK-MEL-2 melanoma = system: SK-MEL-2 melanoma
OVCAR-4 ovarian = system: OVCAR-4 ovarian
MDA-MB-231 breast = system: MDA-MB-231 breast
BT-549 breast = system: BT-549 breast
UACC-62 melanoma = system: UACC-62 melanoma
CCRF-CEM leukemia = system: CCRF-CEM leukemia
U251 CNS = system: U251 CNS
NCI-H226 lung = system: NCI-H226 lung
SNB-75 CNS = system: SNB-75 CNS
NCI-H522 lung = system: NCI-H522 lung
RPMI-8226 leukemia = system: RPMI-8226 leukemia
HOP-62 NSCLC = system: HOP-62 NSCLC
MCF7 breast = system: MCF7 breast
SN12C renal = system: SN12C renal
SK-OV-3 ovarian = system: SK-OV-3 ovarian
NCI/ADR-RES ovarian = system: NCI/ADR-RES ovarian
786-0 renal = system: 786-0 renal
EKVX NSCLC = system: EKVX NSCLC
MDA-MB-435 = system: MDA-MB-435
KM12 colon = system: KM12 colon
A498 renal = system: A498 renal
HCT-15 colon = system: HCT-15 colon
IGROV1 ovarian = system: IGROV1 ovarian
ACHN renal = system: ACHN renal
SF-268 CNS = system: SF-268 CNS
MOLT-4 leukemia = system: MOLT-4 leukemia
TK-10 renal = system: TK-10 renal
LOX IMVI melanoma = system: LOX IMVI melanoma
HS 578T breast = system: HS 578T breast
OVCAR-5 ovarian = system: OVCAR-5 ovarian
NCI-H23 lung = system: NCI-H23 lung
HL-60(TB) leukemia = system: HL-60(TB) leukemia
DU-145 prostate = system: DU-145 prostate
UO-31 renal = system: UO-31 renal
NCI-H460 lung = system: NCI-H460 lung
COLO 205 colon = system: COLO 205 colon
A549 NSCLC = system: A549 NSCLC
SF-539 CNS = system: SF-539 CNS
PC-3 prostate = system: PC-3 prostate
SK-MEL-5 melanoma = system: SK-MEL-5 melanoma
HOP-92 NSCLC = system: HOP-92 NSCLC
SK-MEL-28 melanoma = system: SK-MEL-28 melanoma
SF-295 CNS = system: SF-295 CNS
M14 melanoma = system: M14 melanoma
MALME-3M melanoma = system: MALME-3M melanoma

**Q.** Which results are given for `CC[C@H](C)[C@H](NC(=O)[C@H]1CCCCN1C)C(=O)N(C)[C@H](CCc1nc(C(=O)N[C@@H](Cc2ccccc2)C[C@H](C)C(=O)O)cs1)C(C)C`?
**A.** GI50 (OVCAR-8 ovarian): 0.61 µM; TGI (OVCAR-8 ovarian): > 25 µM; GI50 (UACC-257 melanoma): > 25 µM; TGI (UACC-257 melanoma): > 25 µM; GI50 (SNB-19 CNS): 0.197 µM; TGI (SNB-19 CNS): > 25 µM; GI50 (HCT-116 colon): 0.133 µM; TGI (HCT-116 colon): > 25 µM; GI50 (OVCAR-3 ovarian): 0.0371 µM; TGI (OVCAR-3 ovarian): 0.181 µM; GI50 (HT29 colon): 0.123 µM; TGI (HT29 colon): > 25 µM; GI50 (K-562 leukemia): 0.0585 µM; TGI (K-562 leukemia): > 25 µM; GI50 (SR leukemia): 0.0166 µM; TGI (SR leukemia): > 25 µM; GI50 (HCC-2998 colon): 0.632 µM; TGI (HCC-2998 colon): > 25 µM; GI50 (SW-620 colon): 0.124 µM; TGI (SW-620 colon): > 25 µM; GI50 (SK-MEL-2 melanoma): 0.0789 µM; TGI (SK-MEL-2 melanoma): > 25 µM; GI50 (OVCAR-4 ovarian): 1.94 µM; TGI (OVCAR-4 ovarian): > 25 µM; GI50 (MDA-MB-231 breast): 0.596 µM; TGI (MDA-MB-231 breast): > 25 µM; GI50 (BT-549 breast): 0.126 µM; TGI (BT-549 breast): 6.94 µM; GI50 (UACC-62 melanoma): 0.0861 µM; TGI (UACC-62 melanoma): > 25 µM; GI50 (CCRF-CEM leukemia): 0.0857 µM; TGI (CCRF-CEM leukemia): > 25 µM; GI50 (U251 CNS): 0.127 µM; TGI (U251 CNS): > 25 µM; GI50 (NCI-H226 lung): 8.83 µM; TGI (NCI-H226 lung): > 25 µM; GI50 (SNB-75 CNS): 0.0621 µM; TGI (SNB-75 CNS): > 25 µM; GI50 (NCI-H522 lung): 0.0351 µM; TGI (NCI-H522 lung): 0.579 µM; GI50 (RPMI-8226 leukemia): 0.1 µM; TGI (RPMI-8226 leukemia): > 25 µM; GI50 (HOP-62 NSCLC): 0.208 µM; TGI (HOP-62 NSCLC): > 25 µM; GI50 (MCF7 breast): 0.0271 µM; TGI (MCF7 breast): > 25 µM; GI50 (SN12C renal): 0.445 µM; TGI (SN12C renal): > 25 µM; GI50 (SK-OV-3 ovarian): 0.585 µM; TGI (SK-OV-3 ovarian): > 25 µM; GI50 (NCI/ADR-RES ovarian): > 25 µM; TGI (NCI/ADR-RES ovarian): > 25 µM; GI50 (786-0 renal): 0.476 µM; TGI (786-0 renal): > 25 µM; GI50 (EKVX NSCLC): 0.92 µM; TGI (EKVX NSCLC): > 25 µM; GI50 (MDA-MB-435): 0.012 µM; TGI (MDA-MB-435): 0.0724 µM; GI50 (KM12 colon): 0.115 µM; TGI (KM12 colon): > 25 µM; GI50 (A498 renal): 0.272 µM; TGI (A498 renal): > 25 µM; GI50 (HCT-15 colon): 1.34 µM; TGI (HCT-15 colon): > 25 µM; GI50 (IGROV1 ovarian): 0.223 µM; TGI (IGROV1 ovarian): > 25 µM; GI50 (ACHN renal): 1.37 µM; TGI (ACHN renal): > 25 µM; GI50 (SF-268 CNS): 0.184 µM; TGI (SF-268 CNS): > 25 µM; GI50 (MOLT-4 leukemia): 0.138 µM; TGI (MOLT-4 leukemia): > 25 µM; GI50 (TK-10 renal): > 14.9 µM; TGI (TK-10 renal): > 25 µM; GI50 (LOX IMVI melanoma): 0.123 µM; TGI (LOX IMVI melanoma): > 25 µM; GI50 (HS 578T breast): 0.123 µM; TGI (HS 578T breast): > 25 µM; GI50 (OVCAR-5 ovarian): 1.82 µM; TGI (OVCAR-5 ovarian): > 25 µM; GI50 (NCI-H23 lung): 0.565 µM; TGI (NCI-H23 lung): > 25 µM; GI50 (HL-60(TB) leukemia): 0.0553 µM; TGI (HL-60(TB) leukemia): 0.174 µM; GI50 (DU-145 prostate): 0.389 µM; TGI (DU-145 prostate): > 25 µM; GI50 (UO-31 renal): > 14.1 µM; TGI (UO-31 renal): > 25 µM; GI50 (NCI-H460 lung): 0.164 µM; TGI (NCI-H460 lung): > 25 µM; GI50 (COLO 205 colon): 0.144 µM; TGI (COLO 205 colon): 1.83 µM; GI50 (A549 NSCLC): 2.98 µM; TGI (A549 NSCLC): > 25 µM; GI50 (SF-539 CNS): 0.0888 µM; TGI (SF-539 CNS): 1.14 µM; GI50 (PC-3 prostate): 0.367 µM; TGI (PC-3 prostate): > 25 µM; GI50 (SK-MEL-5 melanoma): 0.0875 µM; TGI (SK-MEL-5 melanoma): 3.24 µM; GI50 (HOP-92 NSCLC): 0.643 µM; TGI (HOP-92 NSCLC): > 25 µM; GI50 (SK-MEL-28 melanoma): > 25 µM; TGI (SK-MEL-28 melanoma): > 25 µM; GI50 (SF-295 CNS): 0.143 µM

**Q.** What does the source list for `CCc1ccc2c(c1)C(=O)c1c-2n(CCCN)c(=O)c2cc(OC)c(OC)cc12`?
**A.** GI50 (UACC-257 melanoma): 19.5 µM; TGI (UACC-257 melanoma): 43.6 µM; GI50 (SNB-19 CNS): 1.85 µM; TGI (SNB-19 CNS): 3.46 µM; GI50 (OVCAR-3 ovarian): 1.51 µM; TGI (OVCAR-3 ovarian): 2.89 µM; GI50 (HT29 colon): 1.56 µM; TGI (HT29 colon): 2.98 µM; GI50 (K-562 leukemia): 0.306 µM; TGI (K-562 leukemia): 0.907 µM; GI50 (HCC-2998 colon): 1.63 µM; TGI (HCC-2998 colon): 3.05 µM; GI50 (SW-620 colon): 1.72 µM; TGI (SW-620 colon): 3.33 µM; GI50 (OVCAR-4 ovarian): 1.74 µM; TGI (OVCAR-4 ovarian): 3.2 µM; GI50 (MDA-MB-231 breast): 1.63 µM; TGI (MDA-MB-231 breast): 3.14 µM; GI50 (BT-549 breast): 1.65 µM; TGI (BT-549 breast): 3.17 µM; GI50 (UACC-62 melanoma): 1.8 µM; TGI (UACC-62 melanoma): 3.32 µM; GI50 (CCRF-CEM leukemia): 1.1 µM; TGI (CCRF-CEM leukemia): 2.48 µM; GI50 (U251 CNS): 1.69 µM; TGI (U251 CNS): 3.11 µM; GI50 (NCI-H226 lung): 21 µM; TGI (NCI-H226 lung): 42.5 µM; GI50 (SNB-75 CNS): 1.96 µM; TGI (SNB-75 CNS): 4.3 µM; GI50 (NCI-H522 lung): 1.59 µM; TGI (NCI-H522 lung): 3.38 µM; GI50 (RPMI-8226 leukemia): 1.41 µM; TGI (RPMI-8226 leukemia): 3.02 µM; GI50 (HOP-62 NSCLC): 1.84 µM; TGI (HOP-62 NSCLC): 3.29 µM; GI50 (MCF7 breast): 1.58 µM; TGI (MCF7 breast): 3.43 µM; GI50 (SN12C renal): 1.73 µM; TGI (SN12C renal): 3.33 µM; GI50 (SK-OV-3 ovarian): 2 µM; TGI (SK-OV-3 ovarian): 3.58 µM; GI50 (NCI/ADR-RES ovarian): 1.68 µM; TGI (NCI/ADR-RES ovarian): 3.22 µM; GI50 (786-0 renal): 1.68 µM; TGI (786-0 renal): 3.11 µM; GI50 (EKVX NSCLC): 1.92 µM; TGI (EKVX NSCLC): 3.44 µM; GI50 (MDA-MB-435): 1.97 µM; TGI (MDA-MB-435): 3.55 µM; GI50 (KM12 colon): 1.41 µM; TGI (KM12 colon): 3.15 µM; GI50 (HCT-15 colon): 1.59 µM; TGI (HCT-15 colon): 3.01 µM; GI50 (IGROV1 ovarian): 1.76 µM; TGI (IGROV1 ovarian): 3.36 µM; GI50 (ACHN renal): 1.68 µM; TGI (ACHN renal): 3.07 µM; GI50 (MOLT-4 leukemia): 1.75 µM; TGI (MOLT-4 leukemia): 3.52 µM; GI50 (TK-10 renal): 1.74 µM; TGI (TK-10 renal): 3.28 µM; GI50 (LOX IMVI melanoma): 1.36 µM; TGI (LOX IMVI melanoma): 2.73 µM; GI50 (HS 578T breast): 2.07 µM; TGI (HS 578T breast): 3.78 µM; GI50 (M14 melanoma): 1.8 µM; TGI (M14 melanoma): 3.37 µM; GI50 (OVCAR-5 ovarian): 1.82 µM; TGI (OVCAR-5 ovarian): 3.24 µM; GI50 (NCI-H23 lung): 1.81 µM; TGI (NCI-H23 lung): 3.3 µM; GI50 (HL-60(TB) leukemia): 1.37 µM; TGI (HL-60(TB) leukemia): 3.47 µM; GI50 (DU-145 prostate): 1.62 µM; TGI (DU-145 prostate): 3.07 µM; GI50 (UO-31 renal): 1.74 µM; TGI (UO-31 renal): 3.32 µM; GI50 (NCI-H460 lung): 1.85 µM; TGI (NCI-H460 lung): 3.86 µM; GI50 (SF-539 CNS): 1.64 µM; TGI (SF-539 CNS): 3.07 µM; GI50 (PC-3 prostate): 1.54 µM; TGI (PC-3 prostate): 2.92 µM; GI50 (SK-MEL-5 melanoma): 1.44 µM; TGI (SK-MEL-5 melanoma): 2.8 µM; GI50 (HOP-92 NSCLC): 1.33 µM; TGI (HOP-92 NSCLC): 2.71 µM; GI50 (SK-MEL-28 melanoma): 1.77 µM; TGI (SK-MEL-28 melanoma): 3.19 µM; GI50 (MALME-3M melanoma): 0.5 µM; TGI (MALME-3M melanoma): 2.1 µM; GI50 (SF-295 CNS): 1.59 µM; TGI (SF-295 CNS): 3.08 µM
